Measured values published in article PMC6123649, “Structural basis for specific inhibition of the highly sensitive ShHTL7 receptor” (EMBO Reports, 2018).
Where two headings read alike, the source gives them in different places.

Key:
ShHTL7 [1] = molecular target: T1, ShHTL7 (Striga hermonthica, UniProt A0A0M3PNA2); assay: Yoshimulactone Green (YLG) hydrolysis competition assay; type: biochemical
T1 sequence (A0A0M3PNA2 1-271): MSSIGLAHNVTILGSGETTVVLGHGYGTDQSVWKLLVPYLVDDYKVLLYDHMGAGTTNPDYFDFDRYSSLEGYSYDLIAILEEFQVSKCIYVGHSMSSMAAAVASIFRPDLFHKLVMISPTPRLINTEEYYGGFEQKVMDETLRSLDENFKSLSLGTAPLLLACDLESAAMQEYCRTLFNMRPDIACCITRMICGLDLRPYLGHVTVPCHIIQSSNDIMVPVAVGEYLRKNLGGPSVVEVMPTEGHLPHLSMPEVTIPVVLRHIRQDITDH
Protocol: In vitro YLG hydrolysis assays were performed using 3 μM of ShHTL7, ShHTL7‐L143Y, AtD14, and OsD14 in a reaction buffer (1× PBS) with 0.1% dimethyl sulfoxide (DMSO) in a 100 μl volume on a 96‐well black plate (Greiner). The fluorescent intensity was measured by SpectraMax i3 (Molecular Devices) using an excitation wavelength of 480 nm and a detection wavelength of 520 nm. […] Protein‐Triton mixes were pre‐incubated for 30 min. 1 μM YLG (Tokyo Chemical Industry Co. Ltd.) was then added, and the assay was incubated for 60 min. The change in fluorescence observed over the course of 1 h incubation of YLG in buffer without protein was subtracted from the data collected in the presence of protein. The resulting relative fluorescence values were analyzed. The inhibitory curves and IC50 values were plotted using GraphPad (Prism 6) four‐parameter logistic curve. The rate of YLG hydrolysis by ShHTL7 was recorded following the above method at 10‐min interval for 2 h.

ShHTL7 [2] = molecular target: T1, ShHTL7; assay: Differential static light scattering (DSLS), aggregation temperature; type: binding; conditions: 10 μM protein, varying compound concentrations
Protocol: The specific aggregation temperature, T agg, at which ShHTL7, ShHTL7L143Y, AtD14, and OsD14 aggregated in the presence or absence of Triton X‐100, GR24, and PAA was measured using DSLS on the Stargazer system (Harbinger Biotechnology and Engineering Corporation, Markham, Canada). Protein samples at a concentration of 10 μM were overlaid with mineral oil in a clear bottom 384‐well black plate (Corning) and heated from 20 to 95°C at 1°C/min; light scattering was detected by a CCD camera every 0.5°C in the presence or absence of varying concentrations of Triton X‐100, GR24, and PAA yielding the difference in aggregation temperature at a particular concentration from apoproteins (ΔT agg). Data were normalized, and ΔT agg plotted against the Triton X‐100, GR24, and PAA concentration. Resulting data were plotted to determine the change in T agg of all proteins when bound to Triton X‐100, GR24, and PAA using GraphPad (Prism 6).

ShHTL6 = test system: ShHTL6; set-up: method as in PMID 26293962, PMID 26450211; conditions: recombinant ShHTL6; read-out: IC50 for GR24, in vitro YLG assay; cited from earlier work
ShHTL7 [3] = molecular target: T1, ShHTL7; assay: Intrinsic tryptophan fluorescence assay; type: binding
ShHTL7 [4] = molecular target: T1, ShHTL7; set-up: method as in PMID 26293962, PMID 26450211; conditions: read-out: IC50 for GR24, in vitro YLG assay; recombinant ShHTL7; cited from earlier work
ShHTL7 [5] = molecular target: T1, ShHTL7; assay: Microscale thermophoresis (MST); type: binding
Protocol: ShHTL7 was N‐terminally labeled with RED dye (NT‐647) following the protocol from manufacturer (NanoTemper, Germany). Free dye was removed by passing through the Sephadex G‐25 column. Serial dilutions of unlabeled Triton X‐100, GR24, and PAA ranging from 25 μM to sub‐nanomolar range were mixed with 20 nM of NT‐647‐labeled ShHTL7 in buffer (50 mM Tris–HCl, 150 mM NaCl, 0.005% Tween‐20) and incubated for 2.5 h in the studies for Triton X‐100 and PAA except with GR24, and it was recorded after 10‐min incubation. About 10 μl of sample was loaded into premium monolith NT capillaries, and assays were carried out in a NanoTemper Monolith NT.015T. The red fluorescence was excited by a light‐emitting diode, and its emission was recorded on the focused part of capillaries. Using laser diode, a microscopic temperature gradient was created at the same location and the fluorescence depletion was measured. K d values were determined by plotting the concentrations of unlabeled ligands against the changes in fluorescent thermophoresis signal, and the data were analyzed using the NanoTemper analysis software.

ShHTL7 [6] = molecular target: T1, ShHTL7; conditions: cited from earlier work
ShHTL7 [7] = molecular target: T1, ShHTL7; assay: Drug affinity response target stability (DARTS) assay; type: binding; conditions: 100 μM compound; proteinase K 10 μg/ml
Protocol: ShHTL7 and mutants were diluted to a concentration of 30 μM in 50 mM Tris–HCl pH 7.5, 150 mM NaCl, 0.005% Tween‐20, incubated with GR24 at final concentration of 100 μM for 5 min, and separately with 100 μM Triton X‐100 for 2 h. One sample was kept aside for use as an undigested control. Proteinase K (Hampton Research) was then added to ShHTL7 protein to a final protease concentration of 10 μg/ml. Reactions were incubated at room temperature for 5 min and then SDS–PAGE loading buffer was added to stop the reaction, and the samples were immediately boiled for 3 min. Equal amounts of each sample, corresponding to 10 μg of protein, were run on a 4–20% gradient polyacrylamide gel (Bio‐Rad) and analyzed by Coomassie Blue staining 32.

ShHTL4‐6 = test system: ShHTL4‐6; set-up: method as in PMID 26293962; conditions: transgenic A. thaliana, read-out: EC50 values for GR24; cited from earlier work
Striga hermonthica seeds = assay: Striga hermonthica germination bioassay; type: in vivo; conditions: for effect on GR24-induced Striga germination: n‐dodecyl‐β‐D‐maltoside at 15 and 1.5 µM, same conditions as Triton
Protocol: Striga hermonthica seeds were collected from Sorghum bicolor field in Sudan. For germination bioassays, Striga seeds were first sterilized and pre‐conditioned as described before 31. […] Triton X‐100/GR24 mixtures were applied (50 μl per disk) in four replicates. Corresponding volumes of GR24 and sterile MiliQ water were included as positive and negative control, respectively. The petri dishes were sealed with parafilm, enfolded with aluminum foil, and incubated for 48 h at 30°C. The germinated (seeds with radicle emerging through the seed coat) and non‐germinated Striga seeds were recorded under a binocular, and germination percentage was calculated.

CC(C)(C)CC(C)(C)c1ccc(OCCO)cc1 [4-ter-octylphenol Monoethoxylate, 4‐ter‐octylphenol monoethoxylate]
IC50 (ShHTL7 [1]): 9240 ± 3170 nM

CC(C)(C)CC(C)(C)c1ccc(OCCOCCO)cc1 [4-ter-octylphenol diethoxylate, 4‐ter‐octylphenol diethoxylate]
IC50 (ShHTL7 [1]): 7480 ± 2130 nM

CC1=CC(O/C=C2/C(=O)OC3c4ccccc4CC23)OC1=O (stereo not shown) [GR24]
effect on ShHTL7 aggregation temperature (T agg) (ShHTL7 [2]): destabilized
IC50 (ShHTL6): ~500 nM
Kd (ShHTL7 [3]): 390 ± 50 nM
IC50 (ShHTL7 [4]): ~500 nM
Kd (ShHTL7 [5]): 920 ± 10 nM
EC50 of GR24 for ShHTL7 in transgenic Arabidopsis (ShHTL7 [6]): picomolar range
EC50 (ShHTL7 [6]; read-out: EC50 (vs. GR24), seed germination in transgenic Arabidopsis lines expressing ShHTL7, ref Toh et al., 2015 (ref. 22)): 0.0175 nM
IC50 (ShHTL7 [1]): 870 ± 60 nM
protection of ShHTL7 from digestion by proteinase K (ShHTL7 [7]): efficiently protected
EC50 (ShHTL4‐6): 10 to 300 nM

CC(C)(C)CC(C)(C)c1ccc(OCC(=O)O)cc1 [PAA, 2‐[4‐(2,4,4‐trimethylpentan‐2‐yl)phenoxy]acetic acid]
effect on ShHTL7 aggregation temperature (T agg) (ShHTL7 [2]): stabilized
Kd (ShHTL7 [5]): 1700 ± 240 nM
IC50 (ShHTL7 [1]): 1480 nM
inhibition at 10 µM (Striga hermonthica seeds; Striga hermonthica, 48 h, read-out: inhibition of S. hermonthica germination): ≤ 40%

CCOC(=O)c1ccccc1-c1c2ccc(=O)cc-2oc2cc(OC3C=C(C)C(=O)O3)ccc12 (stereo not shown) [YLG, reference compound]
time for hydrolysis of YLG by ShHTL7 (ShHTL7 [1]; 3 μM ShHTL7, 1 μM YLG, absence of Triton): ≤ 50 min

CCCCCCCCCCCCO[C@@H]1O[C@H](CO)[C@@H](O[C@H]2O[C@H](CO)[C@@H](O)[C@H](O)[C@H]2O)[C@H](O)[C@H]1O [n‐dodecyl‐β‐D‐maltoside, reference compound]
effect on ShHTL7 aggregation temperature (T agg) (ShHTL7 [2]): did not increase
effect on ShHTL7 aggregation temperature (T agg) (ShHTL7 [2]; listed as nDM): nor increase Tagg
binding to ShHTL7 (MST) (ShHTL7 [5]; authors' reply in peer review file): does neither bind
effect on GR24-induced Striga germination (Striga hermonthica seeds): did not affect germination
effect on GR24-induced Striga germination (Striga hermonthica seeds; listed as nDM): does not block germination
